Source: patent US20220106296A1, “CYANOTRIAZOLE COMPOUNDS AND USES THEREOF” (Novartis AG, priority 2018, published 2022)

Test system: T. b. brucei Lister427 bloodstream form parasites
Experiment: T. b. brucei growth inhibition assay (CellTiter-Glo, 48 hours)
Format: cell-based
Conditions: Trypanosoma brucei
Source text: Bloodstream form of T. b. brucei Lister427 strain was obtained from the Genomics Institute of the Novartis Research Foundation. This strain was used for carrying out growth inhibition and kill kinetics assays. T. b. gambiense STIB930 and T. b. rhodesiense STIB900 were obtained from Swiss TPH, were used for carrying out the growth inhibition assays.
Bloodstream form T. b. brucei Lister 427 parasites were continuously passaged in HMI-9 medium formulated from IMDM medium (Invitrogen), 10% heat-inactivated fetal bovine serum (FBS), 10% Serum Plus medium supplement (SAFC Biosciences), 1 mM hypoxanthine (Sigma-Aldrich), 50 μM bathocuproine disulfonic acid (Sigma-Aldrich), 1.5 mM cysteine (Sigma-Aldrich), 1 mM pyruvic acid (Sigma-Aldrich), 39 μg/mL thymidine (Sigma-Aldrich), and 14 μL/L beta-mercapthoethanol (Sigma-Aldrich); all concentrations of added components refer to that in complete HMI-9 medium. The parasites were cultured in 10 mL of HMI-9 medium in T75 CELL-STAR tissue culture flasks at 37° C./5% CO2.
To determine compound growth inhibitory potency on T. b. brucei Lister427 bloodstream form parasites, 200 nL of 10-point, 3 fold serially diluted compounds in DMSO were transferred to the wells of white, solid bottom 384-well plates (Greiner Bio-One) by either Echo 555 acoustic liquid handling system or Mosquito. Then, 1×10^4 of T. b. brucei parasites in 40 μL of HMI-9 medium were added to each well, and the plates were incubated for 48 hours at 37° C. in 5% CO2 incubators. Parasite numbers in individual plate wells were determined through quantification of intracellular ATP amount. The CellTiter-Glo luminescent cell viability reagent (Promega) was added to plate wells, and ATP-dependent luminescence signal was measured on Tecan M1000 plate Reader after 30 min incubation. Luminescence values in wells with compounds were divided by the average luminescence value of the plate DMSO controls, and used for calculation of compound IC50 values.

Row | SMILES | IC50 [nM]
1 | N#Cc1ncn(CC(=O)N2Cc3ccc(-c4cc(F)ccc4C(F)(F)F)cc3C2)n1 [Example 28, 1-(2-(5-(5-fluoro-2-(trifluoromethyl)phenyl)isoindolin-2-yl)-2-oxoethyl)-1H-1,2,4-triazole-3-carbonitrile] | < 100
2 | N#Cc1ncn(CC(=O)N2Cc3ccc(-c4cccnc4Cl)cc3C2)n1 [Example 47, 1-(2-(5-(2-chloropyridin-3-yl)isoindolin-2-yl)-2-oxoethyl)-1H-1,2,4-triazole-3-carbonitrile] | 100 to 1000
3 | N#Cc1ncn(CC(=O)N2Cc3ccc(-c4ccncc4Cl)cc3C2)n1 [Example 49, 1-(2-(5-(3-chloropyridin-4-yl)isoindolin-2-yl)-2-oxoethyl)-1H-1,2,4-triazole-3-carbonitrile] | 100 to 1000
4 | COc1ccc(-c2ccc3c(c2)CN(C(=O)Cn2cnc(C#N)n2)C3)c(OC)c1 [Example 53, 1-(2-(5-(2,4-dimethoxyphenyl)isoindolin-2-yl)-2-oxoethyl)-1H-1,2,4-triazole-3-carbonitrile] | ≥ 1000
5 | N#Cc1cccc(-c2ccc3c(c2)CN(C(=O)Cn2cnc(C#N)n2)C3)c1 [Example 54, 1-(2-(5-(3-cyanophenyl)isoindolin-2-yl)-2-oxoethyl)-1H-1,2,4-triazole-3-carbonitrile] | ≥ 1000
6 | N#Cc1ncn(CC(=O)N2Cc3ccc(-c4ccc(F)cc4F)cc3C2)n1 [Example 55, 1-(2-(5-(2,4-difluorophenyl)isoindolin-2-yl)-2-oxoethyl)-1H-1,2,4-triazole-3-carbonitrile] | ≥ 1000
7 | N#Cc1ncn(CC(=O)N2Cc3ccc(-c4ccc(F)nc4)cc3C2)n1 [Example 56, 1-(2-(5-(6-fluoropyridin-3-yl)isoindolin-2-yl)-2-oxoethyl)-1H-1,2,4-triazole-3-carbonitrile] | ≥ 1000
8 | COc1ccc(F)cc1-c1ccc2c(c1)CN(C(=O)Cn1cnc(C#N)n1)C2 [Example 57, 1-(2-(5-(5-fluoro-2-methoxyphenyl)isoindolin-2-yl)-2-oxoethyl)-1H-1,2,4-triazole-3-carbonitrile] | ≥ 1000
9 | N#Cc1ncn(CC(=O)N2Cc3ccc(-c4ccc(Cl)cc4F)cc3C2)n1 [Example 58, 1-(2-(5-(4-chloro-2-fluorophenyl)isoindolin-2-yl)-2-oxoethyl)-1H-1,2,4-triazole-3-carbonitrile] | ≥ 1000
10 | COc1ccc(OC)c(-c2ccc3c(c2)CN(C(=O)Cn2cnc(C#N)n2)C3)c1 [Example 59, 1-(2-(5-(2,5-dimethoxyphenyl)isoindolin-2-yl)-2-oxoethyl)-1H-1,2,4-triazole-3-carbonitrile] | ≥ 1000
11 | N#Cc1ncn(CC(=O)N2Cc3ccc(-c4ccncc4F)cc3C2)n1 [Example 60, 1-(2-(5-(3-fluoropyridin-4-yl)isoindolin-2-yl)-2-oxoethyl)-1H-1,2,4-triazole-3-carbonitrile] | ≥ 1000
12 | COc1ccc(-c2ccc3c(c2)CN(C(=O)Cn2cnc(C#N)n2)C3)cc1 [Example 61, 1-(2-(5-(4-methoxyphenyl)isoindolin-2-yl)-2-oxoethyl)-1H-1,2,4-triazole-3-carbonitrile] | ≥ 1000
13 | COc1ccc(OC(F)(F)F)cc1-c1ccc2c(c1)CN(C(=O)Cn1cnc(C#N)n1)C2 [Example 62, 1-(2-(5-(2-methoxy-5-(trifluoromethoxy)phenyl)isoindolin-2-yl)-2-oxoethyl)-1H-1,2,4-triazole-3-carbonitrile] | ≥ 1000
14 | N#Cc1ncn(CC(=O)N2Cc3ccc(-c4ccnc(F)c4)cc3C2)n1 [Example 63, 1-(2-(5-(2-fluoropyridin-4-yl)isoindolin-2-yl)-2-oxoethyl)-1H-1,2,4-triazole-3-carbonitrile] | ≥ 1000
15 | C#Cc1ccc(-c2ccc3c(c2)CN(C(=O)Cn2cnc(C#N)n2)C3)cc1 [Example 64, 1-(2-(5-(4-ethynylphenyl)isoindolin-2-yl)-2-oxoethyl)-1H-1,2,4-triazole-3-carbonitrile] | ≥ 1000
16 | N#Cc1ncn(CC(=O)N2Cc3ccc(-c4ccccc4F)cc3C2)n1 [Example 65, 1-(2-(5-(2-fluorophenyl)isoindolin-2-yl)-2-oxoethyl)-1H-1,2,4-triazole-3-carbonitrile] | ≥ 1000
